According to PMC8537327, “EGFR-Targeted Pentacyclic Triterpene Analogues for Glioma Therapy” (International Journal of Molecular Sciences, 2021):

Columns and labels:
[1] = test system: U251 human glioblastoma cells; experiment: MTT cytotoxicity assay, U251 cells; type: cell-based; conditions: for IC50: Homo sapiens, U-251, MTT, 72 h; for anticancer activity against U251 cells: at 100 µM concentration
Procedure: (§1) U251, T98G (Japanese Collection of Research Bioresources Cell Bank), and U87 human glioblastoma cell lines were incubated in Dulbecco’s Modified Eagle Medium (DMEM)/Ham’s F12 (Wako Pure Chemical Industries, Osaka, Japan), Eagle’s Minimum Essential Medium (EMEM; Wako Pure Chemical Industries, Osaka, Japan), and DMEM (Gibco/Thermo Fisher Scientific, Waltham, MA, USA) respectively, and supplemented with 10% fetal bovine serum (FBS; Sigma Aldrich, MO, USA). Jurkat human leukemic T-cell line was cultured in Roswell Park Memorial Institute (RPMI) 1640 (Wako Pure Chemical Industries, Osaka, Japan), supplemented with 10% FBS. PBMCs (Precision Bioservices, Frederick, MD, USA) were incubated in RPMI 1640 and supplemented with 10% human serum AB (HS) (Gemini, Woodland, CA, USA). All media were supplemented with 89 μg/mL streptomycin (Meiji Seika Pharma, Tokyo, Japan) at 37 °C in a humid atmosphere and 5% CO2. For each experiment, growing cells were plated at 4 × 10^4 cells/mL and 6 × 10^5 cells/mL into 24-well and 96-well microtiter tissue culture plates (Iwaki brand Asahi Glass Co., Chiba, Japan) respectively and incubated for 72 h before the addition of the drugs (the optimal cell number for cytotoxicity assays was determined in preliminary experiments). The stock solutions of the compounds and cisplatin (Sigma-Aldrich, St. Louis, MO, USA) in concentrations between 0.1–10 mM were prepared in dimethyl sulfoxide (DMSO; Wako Pure Chemical Industries, Osaka, Japan) and in H2O respectively, then were added to fresh culture medium. The concentration of DMSO and H2O in the final culture medium was 1% which had no effect on the cell viability.
(§2) The MTT (Dojindo Molecular Technologies, Kumamoto, Japan) assay was carried out using the U251, T98G, U87, Jurkat, and PBMC cells to determine the cytotoxicity of compounds 1–13 and cisplatin as previously described in the literature with small modifications. Treated cells were incubated with different concentrations (1–100 µM) of the compounds for 72 h at 37 °C in the CO2 incubator. About 100 µL (1.1 mg/mL) of MTT solution was added to each well and after further incubation for 4 h, formazan crystals formed. At the end of this period, the medium was removed and the formazan crystals were solubilized by the addition of 100 μL DMSO to each well. The absorbance was read on an Infinite M1000 plate reader (Tecan, Mannedorf, Switzerland) at a wavelength of 550 nm with background subtraction at 630 nm. All experiments were performed in triplicate and IC50 values were defined as the drug concentrations that reduced absorbance to 50% of control values.

[2] = test system: T98G human glioblastoma cells; experiment: MTT cytotoxicity assay, T98G cells; type: cell-based; conditions: for IC50: Homo sapiens, T98G, MTT, 72 h; for anticancer activity against T98G cells: at 100 µM concentration
Procedure: as §1, §2

[3] = test system: U87 human glioblastoma cells; experiment: MTT cytotoxicity assay, U87 cells; type: cell-based; conditions: for IC50: Homo sapiens, U-87 MG, MTT, 72 h; for anticancer activity against U87 cells: at 100 µM concentration
Procedure: as §1, §2

[4] = test system: human peripheral blood mononuclear cells (PBMCs); experiment: MTT cytotoxicity assay, PBMCs; type: cell-based; conditions: Homo sapiens, PBMC, 72 h
Procedure: as §1, §2

[5] = test system: Jurkat human leukemic T-cells; experiment: MTT cytotoxicity assay, Jurkat cells; type: cell-based; conditions: for IC50: Homo sapiens, Jurkat, MTT, 72 h; for SI (selectivity index): SI = IC50 for PBMCs/IC50 for Jurkat cells
Procedure: as §1, §2

Q: Which IC50 [1] does the source give for `C[C@H]1[C@H](C)CC[C@]2(C(=O)OCc3ccccc3)CC[C@]3(C)C(=CC[C@@H]4[C@@]5(C)C[C@@H](O)[C@H](O)[C@@](C)(CO)[C@@H]5CC[C@]43C)[C@H]12` [Compound 1] here?
A: The IC50 was 13.2 ± 3.19 µM.

Q: What about the IC50 [2] of the same compound?
A: The IC50 was 20.5 ± 4.34 µM.

Q: And the IC50 [3]?
A: Its IC50 is 22.6 ± 6.75 µM.

Q: What does the source list for `C=C(C)[C@@H]1CC[C@]2(C(=O)OCc3ccccc3)CC[C@]3(C)[C@H](CC[C@@H]4[C@@]5(C)CC[C@H](O)C(C)(C)[C@@H]5CC[C@]43C)[C@@H]12` [Compound 2]?
A: IC50 [1]: 24 ± 4.98 µM; IC50 [2]: > 100 µM; IC50 [3]: > 100 µM

Q: Which results are given for `CC1(C)[C@@H](O)CC[C@]2(C)[C@H]3C(=O)C=C4[C@@H]5C[C@@](C)(C(=O)OCc6ccccc6)CC[C@]5(C)CC[C@@]4(C)[C@]3(C)CC[C@@H]12` [Compound 3]?
A: IC50 [1]: > 100 µM; anticancer activity against U251 cells [1]: no significant anticancer activity; IC50 [2]: > 100 µM; anticancer activity against T98G cells [2]: no significant anticancer activity; IC50 [3]: > 100 µM; anticancer activity against U87 cells [3]: no significant anticancer activity

Q: For `CC1(C)CC[C@]2(C(=O)OCc3ccccc3)CC[C@]3(C)C(=CC[C@@H]4[C@@]5(C)CC[C@H](O)[C@@](C)(CO)[C@@H]5CC[C@]43C)[C@@H]2C1` [Compound 4], which IC50 [1] is on record?
A: Its IC50 is 8.06 ± 2.04 µM.

Q: What about the IC50 [2] of the same compound?
A: The IC50 was 9.86 ± 2.21 µM.

Q: What about the IC50 [4] of the same compound?
A: Its IC50 is 21.9 ± 5.13 µM.

Q: What about the IC50 [5] of the same compound?
A: The IC50 was 9.97 ± 3.24 µM.

Q: And the “SI (selectivity index)” value [5]?
A: Its value is 2.20.

Q: What about the IC50 [3] of the same compound?
A: Its IC50 is 19.5 ± 4.52 µM.

Q: What does the source list for `C[C@H]1[C@H](C)CC[C@]2(C(=O)OCc3ccccc3)CC[C@]3(C)C(=CC[C@@H]4[C@@]5(C)CC[C@H](O)C(C)(C)[C@@H]5CC[C@]43C)[C@H]12` [Compound 6]?
A: IC50 [1]: 16.7 ± 3.17 µM; IC50 [2]: 64.1 ± 7.36 µM; IC50 [3]: 79.7 ± 10.1 µM

Q: For `CC1(C)CC[C@]2(C(=O)OCc3ccccc3)CC[C@]3(C)C(=CC[C@@H]4[C@@]5(C)CC[C@H](O)[C@@](C)(C=O)[C@@H]5CC[C@]43C)[C@@H]2C1` [Compound 7], which IC50 [1] is on record?
A: The IC50 was 18 ± 2.23 µM.

Q: What about the IC50 [2] of the same compound?
A: Its IC50 is 61.1 ± 5.13 µM.

Q: And the IC50 [3]?
A: The IC50 was 60.9 ± 8.87 µM.

Q: Which IC50 [1] does the source give for `CC1(C)CCC2(C(=O)O)CCC3(C)C(=CCC4C5(C)CCC(O)C(C)(CNCc6ccccc6)C5CCC43C)C2C1` (stereo not drawn) [Compound 11, 9-((Benzylamino)methyl)-10-hydroxy-2,2,6a,6b,9,12a-hexamethyl-1,2,3,4,4a,5,6,6a,6b,7,8,8a,9,10,11,12,12a,12b,13,14b-icosahydropicene-4a-carboxylic acid] here?
A: The IC50 was > 100 µM.

Q: And the “anticancer activity against U251 cells” value [1]?
A: The value was “no significant anticancer activity”.

Q: And the IC50 [2]?
A: The IC50 was > 100 µM.

Q: What about the “anticancer activity against T98G cells” value [2] of the same compound?
A: The value was “no significant anticancer activity”.

Q: And the melting point?
A: The melting point was 246 to 249 °C.

Q: What about the IC50 [3] of the same compound?
A: The IC50 was > 100 µM.

Q: And the “anticancer activity against U87 cells” value [3]?
A: Its value is “no significant anticancer activity”.

Q: What does the source list for `C[C@H](NCC1(C)C(O)CCC2(C)C1CCC1(C)C2CC=C2C3CC(C)(C)CCC3(C(=O)O)CCC21C)c1ccccc1` (stereo partly drawn) [Compound 12, 10-Hydroxy-2,2,6a,6b,9,12a-hexamethyl-9-[(((S)-1-phenylethyl)amino)methyl]-1,2,3,4,4a,5,6,6a,6b,7,8,8a,9,10,11,12,12a,12b,13,14b-icosahydropicene-4a-carboxylic acid]?
A: IC50 [1]: > 100 µM; anticancer activity against U251 cells [1]: no significant anticancer activity; IC50 [2]: > 100 µM; anticancer activity against T98G cells [2]: no significant anticancer activity; melting point: 240 to 243 °C; IC50 [3]: > 100 µM; anticancer activity against U87 cells [3]: no significant anticancer activity

Q: Which IC50 [1] does the source give for `CC(=O)Nc1cccc(NCC2(C)C(O)CCC3(C)C2CCC2(C)C3CC=C3C4CC(C)(C)CCC4(C(=O)O)CCC32C)c1` (stereo not drawn) [Compound 13, 9-[((3-Acetamidophenyl)amino)methyl]-10-hydroxy-2,2,6a,6b,9,12a-hexamethyl-1,2,3,4,4a,5,6,6a,6b,7,8,8a,9,10,11,12,12a,12b,13,14b-icosahydropicene-4a-carboxylic acid] here?
A: Its IC50 is 9.95 ± 2.04 µM.

Q: What about the IC50 [2] of the same compound?
A: The IC50 was 20.2 ± 5.47 µM.

Q: And the IC50 [4]?
A: Its IC50 is 43.1 ± 8.32 µM.

Q: What about the melting point of the same compound?
A: The melting point was 265 to 267 °C.

Q: What about the IC50 [5] of the same compound?
A: Its IC50 is 12.1 ± 1.64 µM.

Q: What about the “SI (selectivity index)” value [5] of the same compound?
A: The value was 3.57.

Q: And the IC50 [3]?
A: The IC50 was 21.7 ± 6.09 µM.
